{"source": "PubChem BioAssay (NCI)", "experiment_in_all_cases": "NCI tumour cell line growth inhibition, 48 h", "key": {"[1]": {"tested_on": "A498 renal"}, "[2]": {"tested_on": "A549 NSCLC"}, "[3]": {"tested_on": "CAKI-1 renal"}, "[4]": {"tested_on": "CCRF-CEM leukemia"}, "[5]": {"tested_on": "COLO 205 colon"}, "[6]": {"tested_on": "DLD-1 colon"}, "[7]": {"tested_on": "DMS 114 small cell lung"}, "[8]": {"tested_on": "DMS 273 small cell lung"}, "[9]": {"tested_on": "EKVX NSCLC"}, "[10]": {"tested_on": "HCC-2998 colon"}, "[11]": {"tested_on": "HCT-116 colon"}, "[12]": {"tested_on": "HCT-15 colon"}, "[13]": {"tested_on": "HL-60(TB) leukemia"}, "[14]": {"tested_on": "HOP-18 NSCLC"}, "[15]": {"tested_on": "HOP-62 NSCLC"}, "[16]": {"tested_on": "HOP-92 NSCLC"}, "[17]": {"tested_on": "HT29 colon"}, "[18]": {"tested_on": "IGROV1 ovarian"}, "[19]": {"tested_on": "K-562 leukemia"}, "[20]": {"tested_on": "KM12 colon"}, "[21]": {"tested_on": "KM20L2 colon"}, "[22]": {"tested_on": "LOX IMVI melanoma"}, "[23]": {"tested_on": "MALME-3M melanoma"}, "[24]": {"tested_on": "MCF7 breast"}, "[25]": {"tested_on": "MOLT-4 leukemia"}, "[26]": {"tested_on": "NCI-H226 lung"}, "[27]": {"tested_on": "NCI-H23 lung"}, "[28]": {"tested_on": "NCI-H460 lung"}, "[29]": {"tested_on": "NCI-H522 lung"}, "[30]": {"tested_on": "NCI/ADR-RES ovarian"}, "[31]": {"tested_on": "OVCAR-3 ovarian"}, "[32]": {"tested_on": "OVCAR-4 ovarian"}, "[33]": {"tested_on": "OVCAR-5 ovarian"}, "[34]": {"tested_on": "OVCAR-8 ovarian"}, "[35]": {"tested_on": "P388 leukemia"}, "[36]": {"tested_on": "P388/ADR leukemia"}, "[37]": {"tested_on": "RPMI-8226 leukemia"}, "[38]": {"tested_on": "RXF 393 renal"}, "[39]": {"tested_on": "SF-268 CNS"}, "[40]": {"tested_on": "SF-295 CNS"}, "[41]": {"tested_on": "SF-539 CNS"}, "[42]": {"tested_on": "SK-MEL-2 melanoma"}, "[43]": {"tested_on": "SK-MEL-28 melanoma"}, "[44]": {"tested_on": "SK-MEL-5 melanoma"}, "[45]": {"tested_on": "SK-OV-3 ovarian"}, "[46]": {"tested_on": "SN12C renal"}, "[47]": {"tested_on": "SN12K1 renal"}, "[48]": {"tested_on": "SNB-19 CNS"}, "[49]": {"tested_on": "SNB-75 CNS"}, "[50]": {"tested_on": "SNB-78 CNS"}, "[51]": {"tested_on": "SW-620 colon"}, "[52]": {"tested_on": "U251 CNS"}, "[53]": {"tested_on": "UACC-257 melanoma"}, "[54]": {"tested_on": "UACC-62 melanoma"}, "[55]": {"tested_on": "UO-31 renal"}, "[56]": {"tested_on": "XF 498 CNS"}}, "note": "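Interpolation was linear, between the two tested concentrations surrounding the appropriate level; five concentrations were tested over 48 hours in 96-well plates. TGI marks complete inhibition of growth.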"}
{"smiles": "C=CCCCCn1c2ccccc2c2c(C)c3cnccc3c(C)c21", "values": [{"measurement": "TGI", "setting": "[1]", "value": 17.8, "unit": "µM"}, {"measurement": "TGI", "setting": "[2]", "value": 32.2, "unit": "µM"}, {"measurement": "TGI", "setting": "[3]", "value": 27.8, "unit": "µM"}, {"measurement": "TGI", "setting": "[4]", "value": 14.3, "unit": "µM"}, {"measurement": "TGI", "setting": "[5]", "value": 18, "unit": "µM"}, {"measurement": "TGI", "setting": "[6]", "value": 29.9, "unit": "µM"}, {"measurement": "TGI", "setting": "[7]", "value": 16.8, "unit": "µM"}, {"measurement": "TGI", "setting": "[8]", "value": 20.5, "unit": "µM"}, {"measurement": "TGI", "setting": "[9]", "value": 34.4, "unit": "µM"}, {"measurement": "TGI", "setting": "[10]", "value": 51.2, "unit": "µM"}, {"measurement": "TGI", "setting": "[11]", "value": 20.9, "unit": "µM"}, {"measurement": "TGI", "setting": "[12]", "value": 27.5, "unit": "µM"}, {"measurement": "TGI", "setting": "[13]", "value": 4.92, "unit": "µM"}, {"measurement": "TGI", "setting": "[14]", "value": 35.6, "unit": "µM"}, {"measurement": "TGI", "setting": "[15]", "value": 35.9, "unit": "µM"}, {"measurement": "TGI", "setting": "[16]", "value": 19.8, "unit": "µM"}, {"measurement": "TGI", "setting": "[17]", "value": 25.7, "unit": "µM"}, {"measurement": "TGI", "setting": "[18]", "value": 46.4, "unit": "µM"}, {"measurement": "TGI", "setting": "[19]", "value": 16.1, "unit": "µM"}, {"measurement": "TGI", "setting": "[20]", "value": 42.6, "unit": "µM"}, {"measurement": "TGI", "setting": "[21]", "value": 31.9, "unit": "µM"}, {"measurement": "TGI", "setting": "[22]", "value": 82.5, "unit": "µM"}, {"measurement": "TGI", "setting": "[23]", "value": 36.8, "unit": "µM"}, {"measurement": "TGI", "setting": "[24]", "value": 36.7, "unit": "µM"}, {"measurement": "TGI", "setting": "[25]", "value": 9.47, "unit": "µM"}, {"measurement": "TGI", "setting": "[26]", "value": 94.9, "unit": "µM"}, {"measurement": "TGI", "setting": "[27]", "value": 32.8, "unit": "µM"}, {"measurement": "TGI", "setting": "[28]", "value": 39.2, "unit": "µM"}, {"measurement": "TGI", "setting": "[29]", "value": 18, "unit": "µM"}, {"measurement": "TGI", "setting": "[30]", "value": 33.7, "unit": "µM"}, {"measurement": "TGI", "setting": "[31]", "value": 19.9, "unit": "µM"}, {"measurement": "TGI", "setting": "[32]", "value": 21.8, "unit": "µM"}, {"measurement": "TGI", "setting": "[33]", "value": 40.4, "unit": "µM"}, {"measurement": "TGI", "setting": "[34]", "value": 21.2, "unit": "µM"}, {"measurement": "TGI", "setting": "[35]", "value": 10.2, "unit": "µM"}, {"measurement": "TGI", "setting": "[36]", "value": 15.8, "unit": "µM"}, {"measurement": "TGI", "setting": "[37]", "value": 12.8, "unit": "µM"}, {"measurement": "TGI", "setting": "[38]", "value": 43, "unit": "µM"}, {"measurement": "TGI", "setting": "[39]", "value": 77.8, "unit": "µM"}, {"measurement": "TGI", "setting": "[40]", "value": 26, "unit": "µM"}, {"measurement": "TGI", "setting": "[41]", "value": 33.5, "unit": "µM"}, {"measurement": "TGI", "setting": "[42]", "value": 47.3, "unit": "µM"}, {"measurement": "TGI", "setting": "[43]", "value": 40.8, "unit": "µM"}, {"measurement": "TGI", "setting": "[44]", "value": 16.7, "unit": "µM"}, {"measurement": "TGI", "setting": "[45]", "value": 35.9, "unit": "µM"}, {"measurement": "TGI", "setting": "[46]", "value": 29.7, "unit": "µM"}, {"measurement": "TGI", "setting": "[47]", "value": 44.3, "unit": "µM"}, {"measurement": "TGI", "setting": "[48]", "value": 37.9, "unit": "µM"}, {"measurement": "TGI", "setting": "[49]", "value": 53.7, "unit": "µM"}, {"measurement": "TGI", "setting": "[50]", "value": 46.3, "unit": "µM"}, {"measurement": "TGI", "setting": "[51]", "value": 73.6, "unit": "µM"}, {"measurement": "TGI", "setting": "[52]", "value": 40.6, "unit": "µM"}, {"measurement": "TGI", "setting": "[53]", "value": 18.7, "unit": "µM"}, {"measurement": "TGI", "setting": "[54]", "value": 40.9, "unit": "µM"}, {"measurement": "TGI", "setting": "[55]", "value": 23.8, "unit": "µM"}, {"measurement": "TGI", "setting": "[56]", "value": 4.36, "unit": "µM"}]}
